Assay results from patent US5216005A, “Immunosuppressive analogues and derivatives of succinylacetone” (priority 1990, dated 1993).
Read-outs that look alike come from different tables or passages of the source.

Legend:
human lymphocytes = test: phytohemagglutinin (PHA) stimulation assay, tritiated thymidine uptake; type: cell-based; conditions: for IC50: Homo sapiens, Lymphocyte, read-out: concentration causing 50% inhibition of PHA stimulation
Method: A second assay widely used to study immune responsiveness is mitogenic stimulation of thymocytes with antigenic substances of plant origin. The most widely used plant molecule is phytohemagglutinin (PHA).
The procedure for carrying out the phytohaemagglutinin assay is also well known to those skilled in the art. Briefly, it consists of isolating human lymphocytes as described above, and incubating about 1.0×10^6 cells per ml in a suitable physiological solution with phytohaemagglutinin, and the appropriate concentration of succinylacetone-proline-NH-PEG. Tritiated thymidine is added 48 hours later and allowed to incubate for twenty-four hours before the cells are counted.

[1] = tested on: IFN-γ (human lymphoid cells); test: IFN-γ production in primary mixed lymphocyte reaction (WISH cells/EMC virus assay); type: cell-based; design: IFN-γ: unit not given here; conditions: for IFN-γ: 1° MLR
Method: Derivatives of succinylacetone were tested for immunosuppressive activity in several different types of assay systems. The first consisted of measuring the amounts of interleukin-2 (IL-2), and interferon-γ (IFN-γ) produced by human lymphoid cells in a mixed lymphocyte reaction. Low levels of these molecules in the reaction mixture indicate that the immune system is being suppressed by the subject succinylacetone derivatives.
IFN-γ was determined by measuring the amount of protection conveyed on human WISH cells against the cytopathic effects of encephalomyocarditis virus (EMC). This assay is described by I. A. Braude, J. of Immunol. Methods 63:237 (1983). Both publications are hereby incorporated by reference.
The mixed lymphocyte reaction assay can be carried out by techniques well known to those skilled in the art. L. Hudson and F. C. Huy, Practical Immunology, p. 260, Blackwell Scientific Publications (1976). Briefly this consists of isolating lymphocytes from human peripheral blood by standard density gradient centrifugation techniques from two separate individuals. Approximately 2×10^5 lymphocytes of each individual are combined to yield a total of 4×10^5 lymphocytes per culture. All procedures are carried out under sterile conditions, and the lymphocytes are isolated and kept in physiologically compatible solutions. To the mixture of lymphocytes is added a desired amount of an appropriate succinylacetone derivative, and after different times an aliquot of the mixture is removed and assayed for IL-2 or IFN-γ, or ^3 H-T is measured.

[2] = viability of peripheral blood lymphocytes with or without PHA, trypan blue exclusion; type: cell-based, human; conditions: human, peripheral blood lymphocytes
Method: Viability was determined using the trypan blue exclusion method well known in the art. […] The assays were conducted in duplicate wherein peripheral blood lymphocytes were isolated from two separate individuals, and then treated with or without phytohemagglutinin in the presence of various concentrations of the appropriate succinylacetone derivative.

In the case of `COC(=O)CCC(=O)CC(C)=O` [Succinylacetone Methyl Ester, methyl 4-6-dioxoheptanoate], the IC50 (human lymphocytes; one assay) is reported as 103 to 309 µM, the IC50 (human lymphocytes; second assay) is reported as ~103 µM and the “PHA stimulation, cpm ± SD” value (human lymphocytes; first experiment, 3.8 μM) is reported as 20292 cpm. For the same compound, the “PHA stimulation, cpm ± SD” value (human lymphocytes; first experiment, 11 μM) was 18100 cpm, the “PHA stimulation, cpm ± SD” value (human lymphocytes; first experiment, 34 μM) was 16549 cpm and the “PHA stimulation, cpm ± SD” value (human lymphocytes; first experiment, 103 μM) was 17595 cpm. The “PHA stimulation, cpm ± SD” value (human lymphocytes; first experiment, 309 μM) was 5927 cpm, the “PHA stimulation, cpm ± SD” value (human lymphocytes; first experiment, 962 μM) was 565 cpm and the “PHA stimulation, cpm ± SD” value (human lymphocytes; first experiment, 2.8 mM) was 126 cpm. For the same compound, the “PHA stimulation, cpm ± SD” value (human lymphocytes; first experiment, 25 mM) was 113 cpm, the “PHA stimulation, cpm ± SD” value (human lymphocytes; first experiment, 83 mM) was 79 cpm and the “PHA stimulation, cpm ± SD” value (human lymphocytes; second experiment, 3.8 μM) was 37936 cpm. The “PHA stimulation, cpm ± SD” value (human lymphocytes; second experiment, 11 μM) was 28645 cpm, the “PHA stimulation, cpm ± SD” value (human lymphocytes; second experiment, 34 μM) was 28614 cpm and the “PHA stimulation, cpm ± SD” value (human lymphocytes; second experiment, 103 μM) was 17733 cpm. For the same compound, the “PHA stimulation, cpm ± SD” value (human lymphocytes; second experiment, 309 μM) was 5292 cpm, the “PHA stimulation, cpm ± SD” value (human lymphocytes; second experiment, 962 μM) was 6949 cpm and the “PHA stimulation, cpm ± SD” value (human lymphocytes; second experiment, 2.8 mM) was 65 cpm. The “PHA stimulation, cpm ± SD” value (human lymphocytes; second experiment, 25 mM) was 112 cpm, the “PHA stimulation, cpm ± SD” value (human lymphocytes; second experiment, 83 mM) was 107 cpm and the IFN-γ ([1]; Exp I, 3 μM) was 2558. It also gave an IFN-γ ([1]; Exp I, 9 μM) of 1860, an IFN-γ ([1]; Exp I, 27 μM) of 2713 and an IFN-γ ([1]; Exp I, 81 μM) of 1628. It also gave an IFN-γ ([1]; Exp I, 244 μM) of 1575, an IFN-γ ([1]; Exp I, 733 μM) of 1890 and an IFN-γ ([1]; Exp I, 2.2 mM) of 788. The IFN-γ ([1]; Exp I, 6.7 mM) was < 630, the IFN-γ ([1]; Exp I, 20 mM) was < 630 and the IFN-γ ([1]; Exp II, 3 μM) was 1313. For the same compound, the IFN-γ ([1]; Exp II, 9 μM) was 1000, the IFN-γ ([1]; Exp II, 27 μM) was 1032 and the IFN-γ ([1]; Exp II, 81 μM) was 1094. For the same compound, the IFN-γ ([1]; Exp II, 244 μM) was 938, the IFN-γ ([1]; Exp II, 733 μM) was 688 and the IFN-γ ([1]; Exp II, 2.2 mM) was < 375. For the same compound, the IFN-γ ([1]; Exp II, 6.7 mM) was < 375, the IFN-γ ([1]; Exp II, 20 mM) was < 375 and the IC50 ([1]; Homo sapiens, Lymphocyte, primary MLR, read-out: concentration that inhibits IFN-γ production by about 50%) was ~733 µM. For the same compound, the viability ([2]; between 2.2 mM and 733 μM) was ~100%, the viability at 3 µM ([2]; first individual, (+) PHA) was 100% and the viability at 9 µM ([2]; first individual, (+) PHA) was 100%. For the same compound, the viability at 27 µM ([2]; first individual, (+) PHA) was 97%, the viability at 81 µM ([2]; first individual, (+) PHA) was 96% and the viability at 244 µM ([2]; first individual, (+) PHA) was 97%. For the same compound, the viability at 733 µM ([2]; first individual, (+) PHA, 733 μM) was 90%, the viability at 2200 µM ([2]; first individual, (+) PHA, 2.2 mM) was 89% and the viability at 6700 µM ([2]; first individual, (+) PHA, 6.7 mM) was 8%. The viability at 20000 µM ([2]; first individual, (+) PHA, 20 mM) was 0%, the viability at 3 µM ([2]; first individual, (-) PHA) was 100% and the viability at 9 µM ([2]; first individual, (-) PHA) was 100%. The viability at 27 µM ([2]; first individual, (-) PHA) was 100%, the viability at 81 µM ([2]; first individual, (-) PHA) was 100% and the viability at 244 µM ([2]; first individual, (-) PHA) was 100%.
